The numbers were not newly measured in patent publication US9511030B2, “Controlled release particles” (priority 2011, dated 2016), which cites them from elsewhere.

SMILES strings stand for the structures.

Take `C=C(C)C(=O)O` [Methacrylic acid]: the water solubility is given as 8.9 mass %.
With `CCCC1COC(Cn2cncn2)(c2ccc(Cl)cc2Cl)O1` (centres unmarked) [Propiconazole, 1-[2-(2,4-dichlorophenyl)-4-n-propyl-1,3-dioxolane-2-ylmethyl]-1H-1,2,4-triazole], the water solubility is 110 ppm.
